{
  "source": "patent US20260248756A1",
  "about": "“FAT COMPOSITION COMPRISING TRIBUTYRIN AND TRICAPROIN AND ITS USE IN MILK REPLACERS” (Nutreco IP Assets B.V., priority 2023, published 2026)",
  "origin": "cited, not measured here",
  "data": [
    {"smiles": "CCCC(=O)OCC(COC(=O)CCC)OC(=O)CCC", "note": "[tributyrin]", "values": [
      {"measurement": "total intake of solid feed", "setting": "postweaning, tributyrin up to 0.6 wt % of dry matter in CMR", "result": "increased total intake of solid feed"},
      {"measurement": "body weight compared with calves not fed tributyrin", "setting": "weaning and postweaning period, 0.6 wt % of dry matter tributyrin in milk replacer", "result": "greater body weight"}
    ]}
  ]
}
